Values of other authors, collected in patent publication US20210268080A1, “IMMUNE STIMULATING COMPOSITIONS FOR THE TREATMENT AND REVENTION OF INFECTIONS WITH INTRACELLULAR PATHOGENS” (priority 2018, published 2021).

System: Trypanosoma cruzi

Structure (SMILES): CC[C@@H]([C@H](C)O)n1ncn(-c2ccc(N3CCN(c4ccc(OC[C@@H]5CO[C@@](Cn6cncn6)(c6ccc(F)cc6F)C5)cc4)CC3)cc2)c1=O [posaconazole]
- efficacy in human studies (human, in vivo): limited efficacy

Structure (SMILES): O=C(Cn1ccnc1[N+](=O)[O-])NCc1ccccc1 [benznidazole]
- onset of heart disease (adults with chronic Chagas infections): slow the onset
- cure rate (children aged six to 12 years with chronic disease): about 60%
- patients who fail to complete the drug regimen due to toxicities (months-long regimen): ~20%
- serum parasite detection (patients with established Chagas cardiomyopathy): significantly reduced
- cardiac clinical deterioration (patients with established Chagas cardiomyopathy, five years of follow-up): did not significantly reduce
